# Measured values: patent publication US20030013078A1, “HIV-1 reporter viruses and their use in assaying anti-viral compounds” (priority 2000, published 2003)
# pEC50: −log10 of the molar value.
# How the values were obtained:
# Type in all cases: cell-based, HIV-1
# NL4Rluc = test: Inhibition of NL4Rluc reporter virus replication in MT-2 #18 cells (renilla luciferase activity); details: Human immunodeficiency virus 1, read-out: EC50, inhibition of viral replication
# Protocol: (§1) MT-2 #18 cells were pelleted and infected with virus stocks at a multiplicity of infection (MOI) of 0.01 at 37° C. for 2hrs. Viruses were removed and cells were washed twice with 1×PBS before re-suspending in a final concentration of 10,000 cells/100 uL. Infectivity and drug sensitivity assays were carried out in 96 well tissue culture plates, and kinetic studies were carried out in T-25 flasks. Cell supernatants were harvested on day 0, 2, 3, 5 or 6, and passaged virus was harvested on day 2 or 3. The activity for the capsid protein p24 was analyzed according to manufacturer's protocol utilizing the Zeptometrix Retrotek product (Zeptometrix Incorporated, Buffalo, N.Y.).
# (§2) Large volume cultures of MT-2 #18 cells were prepared and kept at a concentration of less than 0.5×10^6 cells per milliliter in RPMI media with 10% fetal calf serum. Test compounds were plated into a 96 well tissue culture treated clear bottom black plates (Corning Incorporated, Corning, N.Y.) at a concentration of 3 mM in 20 microliters of dionized water and 5% dimethyl sulfoxide. […]
# (§3) Renilla luciferase activity was measured using the Promega Dual Luciferase Reporter kit (Promega Corp., Madison, Wis.). […] Following the substrate addition, plates were immediately sealed and read for 5 seconds per well in a Wallac Microbeta 1450 (Perkin-Elmer Wallac Incorporated, Gaithersburg, Md.) in the luminescence mode. […]
# JRFNRLuc = test: Inhibition of JRFNRLuc reporter virus replication in MT-2 #18 cells (renilla luciferase activity); details: Human immunodeficiency virus 1, read-out: EC50, inhibition of viral replication
# Protocol: as §1, §2, §3
# JRFNFLuc = test: Inhibition of JRFNFLuc reporter virus infection in MT-2 #18 cells (firefly luciferase activity); details: for pEC50: Human immunodeficiency virus 1, read-out: EC50, inhibition of viral replication
# Protocol: as §1
# Large volume cultures of MT-2 #18 cells were prepared and kept at a concentration of less than 0.5×10^6 cells per milliliter in RPMI media with 10% fetal calf serum. Test compounds were plated into a 96 well tissue culture treated clear bottom black plates (Corning Incorporated, Corning, N.Y.) at a concentration of 3 mM in 20 microliters of dionized water and 5% dimethyl sulfoxide. MT-2 #18 cells were pelleted via low speed centrifugation and re-suspended in fresh media. Reporter viruses were added to the fresh media and cells to obtain the appropriate MOI of 0.01 and a cell concentration of 1×10^4 in 160 microliters. Twenty microliters per well of 2×complete modified eagle's media was then added to compensate for the dionized water volume. 180 microliters of this mixture is then added to each test compound well and control wells. Following a 5 to 6 day incubation at 37° C., media was aspirated from the wells utilizing a 12-channel manifold.
# The replication ability of the NL4Rluc and JRFNRLuc viruses were then compared to that of the JRFNFLuc virus. JRFNFLuc differs from JRFNRLuc in that it encodes the firefly luciferase gene instead of the renilla luciferase gene. JRFNFLuc was constructed in a fashion similar to that previously reported (Chen et al., 1994). Infection of T-cell lines by JRFNFLuc was carried out exactly as that was done for NL4Rluc and JRFNRLuc viruses. […] Upon passing the day 6 post infection JRFNFLuc supernatant onto uninfected MT-2 #18 cells, no firefly luciferase activity or p24 production could be detected up to seven days post inoculation (data not shown). […] The finding that this virus was not capable of inhibition by a late stage HIV-1 replication cycle inhibitor is further evidence of it not being able to replicate.
# JRFNSEAP = test: Inhibition of JRFNSEAP reporter virus replication in MT-2 #18 cells (SEAP activity); details: Human immunodeficiency virus 1, provirus JRFNSEAP (CCR5-tropic), MOI 0.01, read-out: EC50, inhibition of viral replication
# Protocol: as §1, §2
# Secreted placental alkaline phosphatase (SEAP) activity was measured using the a 1,2 dioxetane alkaline phosphatase substrate called CSPD (Tropix PE Applied Biosystems, Bedford, Mass.). […] Light emission can be measured utilizing a scintillation counter or a luminometer. […]
Compound,pEC50 (NL4Rluc),pEC50 (JRFNRLuc),Non-inhibiting concentration on JRFNFLuc relative to the EC50 on the replication competent JRFNRLuc (JRFNFLuc; 10 uM versus JRFNRLuc),pEC50 (JRFNFLuc),Inhibition of JRFNFLuc virus (JRFNFLuc; at 10 uM),pEC50 (JRFNSEAP)
CC(C)CN(C[C@@H](O)[C@H](Cc1ccccc1)NC(=O)O[C@H]1CCOC1)S(=O)(=O)c1ccc(N)cc1 [Amprenavir],7.71,8.16,over 1000 fold,< 5.00,unable to inhibit,7.67
O=C1Nc2ccc(Cl)cc2[C@@](C#CC2CC2)(C(F)(F)F)O1 [Efavirenz],9.44,9.92,–,9.74,–,10.00
